From patent US20060094685A1, “Medicinal composition for drug-induced neuropathy” (priority 2002, published 2006) come the findings set out here.

Counter-ions that a name gives are not always drawn.

Test [1] has as its system Vincristine-induced Sensory Neuropathy Mouse. As to the kind of experiment: Tail Flick Test using vincristine-induced sensory neuropathy mouse. Type of test: in vivo, mouse (male ICR strain). The note with it: CDP-choline·Na 500 mg/kg oral once a day for 10 weeks. On the procedure: Experiment: Tail Flick Test Using Vincristine-induced Sensory Neuropathy Mouse (In Vivo) (1) Preparation of Mouse with Vincristine-induced Sensory Neuropathy Vincristine (0.05 mg/kg for the first time, 0.125 mg/kg for the second time and the following) dissolved in injectable physiological saline was intraperitoneally administered to male ICR strain mice (7-week-old, 10 per group) twice a week for 10 weeks to induce sensory neuropathy. (2) Administration of CDP-choline CDP-choline·Na was dissolved in distilled water, and oral administration thereof (500 mg/kg per dose) was started on the same day as vincristine once a day for 10 weeks. (3) Tail Flick Test A photothermic stimulation was given to the tail of mouse, and the reaction latency up to the motion of the tail upon sensing the heat was measured. The measurement results of the reaction latency of a control group, a vincristine administration group and a vincristine administration group with administration of CDP-choline (500 mg/kg) are shown in FIG. 1.
A general note: Hot-plate and tail-flick tests time the reaction to a heat stimulus.

Test [2] deals with Mice With Acrylamide Induced Sensory Neuropathy. As to the kind of experiment: Tail Flick Test using mice with acrylamide-induced sensory neuropathy. It counts as in vivo, mouse (male ICR strain). Particulars: CDP-choline·Na 100 mg/kg oral once a day for 1 week. As for the experimental part:
Experiment: Tail Flick Test Using Mice With Acrylamide Induced Sensory Neuropathy (In Vivo) (1) Preparation of Mouse With Acrylamide-induced Sensory Neuropathy Acrylamide (2.5 mg/mice) dissolved in injectable physiological saline was intraperitoneally administered to male ICR strain mice (7-week-old, 10 per group) 5 times a week for 1 week to induce sensory neuropathy. (2) Administration of CDP-choline CDP-choline·Na was dissolved in distilled water, and oral administration thereof (100 mg/kg per dose) was started on the same day as acrylamide once a day for 1 week. (3) Tail Flick Test A photothermic stimulation was given to the tail of mouse, and the reaction latency up to the motion of the tail upon sensing the heat was measured. The measurement results of the reaction latency of a control group, an acrylamide administration group and an acrylamide administration group with administration of CDP-choline (100 mg/kg) are shown in FIG. 2.

With `C[N+](C)(C)CCOP(=O)(O)OP(=O)([O-])OC[C@H]1O[C@@H](n2ccc(N)nc2=O)[C@H](O)[C@@H]1O` [CDP-choline, cytidine 5′-diphosphocholine-monosodium salt], the “suppression of vincristine-induced sensory neuropathy (hyperesthesia-like symptom)” value in test [1] (started on the same day as vincristine i.p. twice a week, 10 mice per group) is given as “almost completely suppressed”. Moreover, the “reaction latency in Tail Flick Test” value in test [1] (vincristine-treated mice, compared to control group, FIG. 1) was “of the same level as the control group”; in test [2] (acrylamide-treated mice, compared to control group, FIG. 2), “of the same level as the control group”. Besides, the “suppression of acrylamide-induced sensory neuropathy (hyperesthesia-like symptom)” value in test [2] (started on the same day as acrylamide i.p. 5 times a week, 10 mice per group) was “almost completely suppressed”.
